# Tested on: cherries
# Test: Cherry firmness after cold storage, pre-harvest application
# Assay type: in vivo
# Conditions: after 12 days of cold storage (33° F.); sprayed 2 weeks before harvest; calcium chloride 0.5% w/v, Formulation III 10% (v/v)
# Description: 1. Effect of Pre-Harvest Application of Matrix III and Calcium on Firmness. The effect of the Formulation III (Matrix III, see EXAMPLE 15) on cherry firmness was determined in the lab with a firmness meter. Firmness is a function of water content. […] After drying, a 10% (v/v) dilution of Formulation III was applied to half of the trees. […] Increased firmness was also observed in a larger orchard trial with ‘Bing’ and ‘Van’ cherries.
structure (smiles),measurement,value
"[Ca+2].[Cl-].[Cl-] [calcium chloride, Calcium chloride]",firmness,277.1 mg/mm^2
